From ChEMBL document CHEMBL1201862, “PubChem BioAssay data set” (2004)
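Cells were grown in 96-well plates and exposed to each compound for 48 hours at five concentrations; endpoints were interpolated linearly between bracketing concentrations, or set to the highest concentration if not reached. GI50: concentration for 50% inhibition of growth.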 Calls of active or inactive are those of the source. No stated cut-off is given here; in the data, active = GI50 up to about 1.1 µM and inactive = higher.

Tests used:
Assay in all cases: growth of human tumour cells (NCI), 48 h
U-251 = system: U-251
OVCAR-5 = system: OVCAR-5
SF-268 = system: SF-268
SN12C = system: SN12C
UACC-62 = system: UACC-62
CCRF-CEM = system: CCRF-CEM
MDA-MB-231 = system: MDA-MB-231
MOLT-4 = system: MOLT-4
HOP-62 = system: HOP-62
HL-60 = system: HL-60
KM12 = system: KM12
786-0 = system: 786-0
SF-539 = system: SF-539
NCI-H460 = system: NCI-H460
UACC-257 = system: UACC-257
HT-29 = system: HT-29
NCI-H522 = system: NCI-H522
SW-620 = system: SW-620
HCT-116 = system: HCT-116
LXFL 529 = system: LXFL 529

Measured: GI50

O=C(N/C(=C\c1ccccc1)C1Nc2ccccc2C(=O)O1)c1ccccc1 (stereo unspecified)
inactive: U-251 22.4 µM | OVCAR-5 > 100 µM | SF-268 44 µM | SN12C 28.2 µM | UACC-62 27.5 µM | CCRF-CEM 19.1 µM | MDA-MB-231 41.3 µM | MOLT-4 18.7 µM | HOP-62 20.4 µM | HL-60 12.4 µM | KM12 15.8 µM | 786-0 24.5 µM | SF-539 20.2 µM | NCI-H460 16.6 µM | UACC-257 20.6 µM | HT-29 32.7 µM | NCI-H522 16.3 µM | SW-620 23.6 µM | HCT-116 18.3 µM

O=c1c2c(F)c(F)c(F)c(F)c2sc2nccn12
inactive: U-251 14.9 µM | OVCAR-5 20.4 µM | SF-268 18 µM | SN12C 18.5 µM | UACC-62 14.7 µM | CCRF-CEM 11.3 µM | MDA-MB-231 20.3 µM | MOLT-4 3.01 µM | HOP-62 22.4 µM | HL-60 2.06 µM | KM12 17.1 µM | 786-0 15.2 µM | SF-539 17.5 µM | NCI-H460 11.2 µM | UACC-257 13 µM | HT-29 16.9 µM | NCI-H522 18.9 µM | SW-620 17.3 µM | HCT-116 13.9 µM

O=c1c2cc(-c3ccccc3)sc2nc2n1N=C(c1ccccc1)CS2
inactive: U-251 19.7 µM | OVCAR-5 > 100 µM | SF-268 24.3 µM | SN12C 27 µM | UACC-62 12.4 µM | CCRF-CEM 57.7 µM | MDA-MB-231 39.8 µM | MOLT-4 > 100 µM | HOP-62 5.02 µM | HL-60 > 100 µM | KM12 31 µM | 786-0 13.8 µM | SF-539 27.9 µM | NCI-H460 25.1 µM | UACC-257 24.1 µM | HT-29 > 10 µM | NCI-H522 22.4 µM | SW-620 69.5 µM | HCT-116 34.8 µM

O=C1NN=C2C=C(c3ccc(Cl)cc3)CC(c3cccc(Cl)c3)C12 (stereo unspecified)
inactive: U-251 18.9 µM | OVCAR-5 26.5 µM | SF-268 23.1 µM | SN12C 22.5 µM | UACC-62 15.8 µM | CCRF-CEM 23.6 µM | MDA-MB-231 17.7 µM | MOLT-4 17.9 µM | HOP-62 34.4 µM | HL-60 21.2 µM | KM12 28.6 µM | 786-0 21.4 µM | SF-539 24.5 µM | NCI-H460 19 µM | UACC-257 17.9 µM | HT-29 21.9 µM | NCI-H522 15.8 µM | SW-620 27.9 µM | HCT-116 18.5 µM

C#C[C@]1(O)CC[C@H]2[C@@H]3CCC4=C/C(=N\OCCN5CCCCC5)CC[C@]4(C)[C@H]3CC[C@@]21C
inactive: U-251 9.68 µM | OVCAR-5 13.5 µM | SF-268 6.44 µM | SN12C 6.89 µM | UACC-62 3.32 µM | CCRF-CEM 4.54 µM | MDA-MB-231 13.9 µM | MOLT-4 3.9 µM | HOP-62 11 µM | HL-60 3.19 µM | KM12 3.44 µM | 786-0 3.63 µM | SF-539 4.11 µM | NCI-H460 6.78 µM | UACC-257 3.98 µM | HT-29 6.67 µM | NCI-H522 2.47 µM | SW-620 4.33 µM | HCT-116 4.31 µM

CC(=O)O[C@H]1[C@@H](N2CCOCC2)C[C@H]2[C@@H]3CC=C4C[C@@H](N5CCCC5)CC[C@]4(C)[C@H]3CC[C@@]21C
inactive: U-251 > 100 µM | OVCAR-5 > 100 µM | SF-268 > 100 µM | SN12C > 100 µM | UACC-62 > 100 µM | CCRF-CEM > 100 µM | MDA-MB-231 > 100 µM | MOLT-4 > 100 µM | HOP-62 > 100 µM | HL-60 56.4 µM | KM12 > 100 µM | 786-0 > 100 µM | SF-539 73.8 µM | NCI-H460 > 100 µM | UACC-257 > 100 µM | HT-29 5.21 µM | NCI-H522 > 100 µM | SW-620 > 100 µM | HCT-116 65.8 µM

O=C1Nc2ccc(Br)cc2/C1=N/Nc1ccc([N+](=O)[O-])cc1[N+](=O)[O-]
inactive: U-251 4.22 µM | SF-268 4.33 µM | SN12C 3.04 µM | UACC-62 3.85 µM | CCRF-CEM 3.02 µM | MOLT-4 3.44 µM | HOP-62 5.7 µM | HL-60 1.92 µM | KM12 4.13 µM | 786-0 2.77 µM | UACC-257 3.89 µM | HT-29 3.78 µM | NCI-H522 2.42 µM | LXFL 529 3.66 µM | SW-620 3.18 µM | HCT-116 1.55 µM

O=S1(=O)OCCOS(=O)(=O)C1C1c2ccccc2-c2ccccc21
inactive: U-251 20.7 µM | OVCAR-5 72.3 µM | SF-268 28.9 µM | SN12C 48.6 µM | UACC-62 21.7 µM | CCRF-CEM 16.4 µM | MDA-MB-231 > 100 µM | MOLT-4 15.6 µM | HOP-62 29.3 µM | HL-60 15.5 µM | KM12 41.5 µM | 786-0 20 µM | SF-539 22.8 µM | NCI-H460 11.4 µM | UACC-257 36.4 µM | HT-29 34 µM | NCI-H522 20.7 µM | SW-620 26.9 µM | HCT-116 28.6 µM

CCOC(=O)c1c(-c2ccc(Br)cc2)ccn1C
inactive: U-251 > 10 µM | OVCAR-5 > 10 µM | SF-268 > 10 µM | SN12C > 10 µM | UACC-62 > 10 µM | CCRF-CEM > 10 µM | MDA-MB-231 > 10 µM | MOLT-4 > 10 µM | HOP-62 > 10 µM | HL-60 > 10 µM | KM12 > 10 µM | 786-0 > 10 µM | SF-539 > 10 µM | NCI-H460 > 10 µM | UACC-257 > 10 µM | HT-29 > 10 µM | NCI-H522 > 10 µM | SW-620 > 10 µM | HCT-116 > 10 µM

Fc1c(F)c(F)c2c(c1F)CSc1nc3ccccc3n1-2
inactive: U-251 > 100 µM | OVCAR-5 > 100 µM | SF-268 > 100 µM | SN12C > 100 µM | UACC-62 > 100 µM | CCRF-CEM > 100 µM | MDA-MB-231 > 100 µM | MOLT-4 > 100 µM | HOP-62 > 100 µM | HL-60 > 100 µM | KM12 > 100 µM | 786-0 > 100 µM | SF-539 > 100 µM | NCI-H460 > 100 µM | UACC-257 > 100 µM | HT-29 > 100 µM | NCI-H522 > 100 µM | SW-620 > 100 µM | HCT-116 > 100 µM

NS(=O)(=O)c1cc(C(=O)O)c(Cl)c([N+](=O)[O-])c1Cl
inactive: U-251 > 100 µM | OVCAR-5 > 100 µM | SF-268 > 100 µM | SN12C > 100 µM | UACC-62 > 100 µM | CCRF-CEM > 100 µM | MDA-MB-231 > 100 µM | MOLT-4 > 100 µM | HOP-62 > 100 µM | HL-60 > 100 µM | KM12 > 100 µM | 786-0 > 100 µM | SF-539 > 100 µM | NCI-H460 > 100 µM | UACC-257 > 100 µM | HT-29 > 100 µM | NCI-H522 > 100 µM | SW-620 > 100 µM | HCT-116 > 100 µM
